The values that follow come from ChEMBL document CHEMBL5131529, “KRAS Inhibitors and Target Engagement Technology: From Undruggable to Druggable Targets in Cancer Therapeutics” (ACS Med Chem Lett, 2022).

One may read the IC50 as the concentration at which inhibition is half-maximal.

In test [1] the target is T1, GTPase KRas (Homo sapiens, UniProt P01116, G12C). The experiment in a line: Inhibition of BODIPY loaded KRAS G12C mutant (unknown origin) assessed as inhibition of GDP-GTP exchange rate in presence of SOS1/GppNHp incubated for 2 hr by BODIPY fluorescence assay.
T1 sequence (P01116 whole entry G12C): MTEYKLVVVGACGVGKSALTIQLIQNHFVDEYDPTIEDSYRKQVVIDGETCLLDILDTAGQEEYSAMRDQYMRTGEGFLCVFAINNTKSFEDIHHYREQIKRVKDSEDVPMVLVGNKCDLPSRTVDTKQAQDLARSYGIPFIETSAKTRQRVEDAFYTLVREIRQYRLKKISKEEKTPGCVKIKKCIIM
Test [2] deals with T1, GTPase KRas. The experiment in a line: Inhibition of KRAS G12C mutant in human MIA PaCa-2 cells assessed as reduction in ERK phosphorylation incubated for 2 to 4 hrs by HTRF assay. Type of test: cell-based.

For the compound `C=Cc1ncc2n1CCN(c1nc(OCCN3CCOCC3)nc3c(F)c(-c4cc(O)cc5ccccc45)c(Cl)cc13)C2`, the IC50 is 0.1 µM on GTPase KRas [1] and 5 µM at GTPase KRas [2].
In the case of `C=Cc1ncc2n1CCN(c1nc(=O)n(-c3c(C)ccnc3C(C)C)c3nc(-c4c(O)cccc4F)c(F)cc13)C2`, the IC50 on GTPase KRas [1] was determined as 0.1 µM; at GTPase KRas [2], 5 µM; at GTPase KRas [2] (mia paca-2) it was 5 µM.
Take `C=Cc1ncc2n1CCN(c1nc(OCC3CCCN3C)nc3c(F)c(-c4c(C)ccc5[nH]ncc45)c(Cl)cc13)C2` (stereo not drawn): the figures for the IC50 on GTPase KRas [1] and at GTPase KRas [2] were 0.1 µM and 5 µM, respectively.
With `C=Cc1ncc2n1CCN(c1nc(OC3CCCN(C)C3)nc3c(F)c(-c4cc(O)cc5ccccc45)c(Cl)cc13)C2` (stereo not drawn), the values for the IC50 at GTPase KRas [1] and on GTPase KRas [2] were 0.1 µM and 5 µM, respectively.
The like results for `C=Cc1ncc2n1CCN(c1nc(OC3CCN(C)CC3)nc3c(F)c(-c4cc(O)cc5ccccc45)c(Cl)cc13)C2` were, in that order, 0.1 µM and 5 µM.
For `C=Cc1ncc2n1CCN(c1nc(OCC3CCCN3C)nc3c(F)c(-c4c(O)cccc4F)c(Cl)cc13)C2` (stereo not drawn), the IC50 turned out to be 0.1 µM at GTPase KRas [1] and 5 µM on GTPase KRas [2].
For `C=Cc1ncc2n1CCN(c1nc(OC[C@@H]3CCCN3C)nc3c(F)c(-c4cc(O)cc5ccccc45)c(Cl)cc13)C2`, the IC50 on GTPase KRas [1] was 0.1 µM; on GTPase KRas [2], 1 µM.
The like results for `C=Cc1ncc2n1CCN(c1nc(=O)n(C(C)C)c3nc(-c4c(O)cccc4F)c(F)cc13)C2` were, in that order, 0.1 µM and 5 µM.
The like results for `C=Cc1ncc2n1CCN(c1nc(OCC3CCCN3C)nc3c(F)c(-c4cc(O)cc5ccccc45)c(Cl)cc13)C2` (stereo not drawn) were, in that order, at most 0.1 µM and 1 µM.
The like results for `C=Cc1ncc2n1CCN(c1nc(=O)n(CC3CC3)c3nc(-c4c(O)cccc4F)c(F)cc13)C2` were, in that order, 0.1 µM and 5 µM.
For the compound `C=Cc1ncc2n1CCN(c1nc(OCCN(C)C)nc3c(F)c(-c4cc(O)cc5ccccc45)c(Cl)cc13)C2`, the IC50 was 0.1 µM on GTPase KRas [1] and 1 µM at GTPase KRas [2].
